Among the data in patent US11530210B2, “Substituted heteroaromatic pyrazolo-pyridines and their use as GLUN2B receptor modulators” (JANSSEN PHARMACEUTICA NV, priority 2019, dated 2022) are IC50 values, retold here.

The target in the experiment is T1, human GluN1/GluN2B NMDA receptors (Homo sapiens, UniProt Q13224).
T1 construct: expressed in transfected cells
Kind of experiment: Calcium flux (FLIPR) assay on cloned human NR1/GluN2B ion channels expressed in mammalian cells (standard and HTS variants). The settings on record: cells expressing human GluN1/GluN2B, glutamate and glycine co-agonists. The format is cell-based. In outline:
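Tet-On-induced stable cell line loaded with Calcium 5 dye; compounds applied 5 min (agonist check), then glutamate at ~EC40 plus 10 μM glycine for 5 min. Buffer pH 7.4 with 0.5 mM MgCl2 in dye loading (standard) or 1.5 mM (HTS). FLIPR fluorescence normalized to control wells; (+)MK-801 as antagonist control.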
In general terms: Calcium assays in cells follow changes in intracellular calcium, usually with a dye or a luminescent sensor.

By IC50 is commonly meant the concentration at which inhibition is half-maximal.

T1 sequence (Q13224 27-1484, other chains not shown): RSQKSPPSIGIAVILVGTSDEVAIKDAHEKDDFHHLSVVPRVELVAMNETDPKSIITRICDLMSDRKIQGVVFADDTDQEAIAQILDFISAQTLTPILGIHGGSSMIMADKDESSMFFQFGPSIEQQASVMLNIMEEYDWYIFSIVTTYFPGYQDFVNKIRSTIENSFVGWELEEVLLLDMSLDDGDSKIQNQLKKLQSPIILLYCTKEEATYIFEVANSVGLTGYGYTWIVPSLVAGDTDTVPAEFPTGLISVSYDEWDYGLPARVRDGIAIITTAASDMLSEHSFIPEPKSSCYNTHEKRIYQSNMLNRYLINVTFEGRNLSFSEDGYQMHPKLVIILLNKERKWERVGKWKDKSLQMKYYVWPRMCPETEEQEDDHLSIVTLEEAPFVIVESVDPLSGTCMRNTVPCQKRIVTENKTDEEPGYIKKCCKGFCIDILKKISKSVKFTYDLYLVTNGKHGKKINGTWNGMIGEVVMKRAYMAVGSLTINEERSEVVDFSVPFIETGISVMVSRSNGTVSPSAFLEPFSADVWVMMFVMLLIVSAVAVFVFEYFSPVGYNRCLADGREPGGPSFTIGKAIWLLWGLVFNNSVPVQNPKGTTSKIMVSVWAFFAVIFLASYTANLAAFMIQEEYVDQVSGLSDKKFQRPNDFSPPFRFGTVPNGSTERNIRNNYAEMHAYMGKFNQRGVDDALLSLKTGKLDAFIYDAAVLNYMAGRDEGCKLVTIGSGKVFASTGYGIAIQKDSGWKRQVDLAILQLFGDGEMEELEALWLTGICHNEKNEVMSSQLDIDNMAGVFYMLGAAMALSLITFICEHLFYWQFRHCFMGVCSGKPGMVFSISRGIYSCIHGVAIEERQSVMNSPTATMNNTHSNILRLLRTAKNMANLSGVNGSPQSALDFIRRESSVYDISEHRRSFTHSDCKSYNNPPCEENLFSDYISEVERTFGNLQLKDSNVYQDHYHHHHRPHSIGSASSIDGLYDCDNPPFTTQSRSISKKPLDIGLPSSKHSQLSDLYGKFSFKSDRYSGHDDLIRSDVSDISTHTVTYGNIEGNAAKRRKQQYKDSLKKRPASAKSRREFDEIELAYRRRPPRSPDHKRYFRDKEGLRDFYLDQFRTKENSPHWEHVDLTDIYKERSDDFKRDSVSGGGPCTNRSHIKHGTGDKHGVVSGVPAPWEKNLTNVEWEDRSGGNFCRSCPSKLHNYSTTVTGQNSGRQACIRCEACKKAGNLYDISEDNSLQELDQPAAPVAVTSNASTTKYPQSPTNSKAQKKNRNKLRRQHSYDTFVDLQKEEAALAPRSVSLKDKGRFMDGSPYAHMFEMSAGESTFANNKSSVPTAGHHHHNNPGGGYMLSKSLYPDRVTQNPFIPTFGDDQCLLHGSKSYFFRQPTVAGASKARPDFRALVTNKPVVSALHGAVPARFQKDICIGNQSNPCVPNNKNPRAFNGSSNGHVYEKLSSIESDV

Regarding `Cc1nnc(Cn2nc(F)c3ncc(-c4ccc(F)c(C(C)(F)F)c4)cc32)o1` [Example 105, 2-[[6-[3-(1,1-Difluoroethyl)-4-fluoro-phenyl]-3-fluoro-pyrazolo[4,3-b]pyridin-1-yl]methyl]-5-methyl-1,3,4-oxadiazole], the IC50 is 367 nM. As for `Cc1nnc(Cn2ncc3ncc(-c4ccc(Cl)c(C(F)F)c4)cc32)o1` [Example 106, 2-[[6-[4-Chloro-3-(difluoromethyl)phenyl]pyrazolo[4,3-b]pyridin-1-yl]methyl]-5-methyl-1,3,4-oxadiazole], the IC50 was found to be 115 nM. `Cc1nnc(Cn2nc(F)c3ncc(-c4ccc(Cl)c(C(F)F)c4)cc32)o1` [Example 107, 2-[[6-[4-Chloro-3-(difluoromethyl)phenyl]-3-fluoro-pyrazolo[4,3-b]pyridin-1-yl]methyl]-5-methyl-1,3,4-oxadiazole]: the IC50 turned out to be 347 nM. Consider `Cc1noc(Cn2ncc3ncc(-c4cc(F)cc(C(F)(F)F)c4)cc32)n1` [Example 108, 5-[[6-[3-Fluoro-5-(trifluoromethyl)phenyl]pyrazolo[4,3-b]pyridin-1-yl]methyl]-3-methyl-1,2,4-oxadiazole], for which the IC50 was found to be 815 nM. Take `Cc1noc(Cn2ncc3ncc(-c4cc(C(F)(F)F)ccc4F)cc32)n1` [Example 109, 5-[[6-[2-Fluoro-5-(trifluoromethyl)phenyl]pyrazolo[4,3-b]pyridin-1-yl]methyl]-3-methyl-1,2,4-oxadiazole]: the IC50 came out at 3260 nM. In the case of `Cc1noc(Cn2ncc3ncc(-c4ccc(F)c(C(F)(F)F)c4)cc32)n1` [Example 110, 5-[[6-[4-Fluoro-3-(trifluoromethyl)phenyl]pyrazolo[4,3-b]pyridin-1-yl]methyl]-3-methyl-1,2,4-oxadiazole], the IC50 is 400 nM. For the molecule `Cc1noc(Cn2ncc3ncc(-c4cccc(C(F)(F)F)c4F)cc32)n1` [Example 111, 5-[[6-[2-Fluoro-3-(trifluoromethyl)phenyl]pyrazolo[4,3-b]pyridin-1-yl]methyl]-3-methyl-1,2,4-oxadiazole], the IC50 is 183 nM. For the molecule `Cc1noc(Cn2ncc3ncc(-c4ccc(F)c(OC(F)F)c4)cc32)n1` [Example 112, 5-[[6-[3-(Difluoromethoxy)-4-fluoro-phenyl]pyrazolo[4,3-b]pyridin-1-yl]methyl]-3-methyl-1,2,4-oxadiazole], the IC50 worked out at 289 nM.

In the case of `Cc1nnc(Cn2ncc3ncc(-c4ccc(F)c(OC(F)F)c4)cc32)o1` [Example 113, 2-[[6-[3-(Difluoromethoxy)-4-fluoro-phenyl]pyrazolo[4,3-b]pyridin-1-yl]methyl]-5-methyl-1,3,4-oxadiazole], the IC50 amounted to 104 nM. Turning to `Cc1nc(Cn2ncc3ncc(-c4ccc(F)c(OC(F)F)c4)cc32)no1` [Example 114, 3-[[6-[3-(Difluoromethoxy)-4-fluoro-phenyl]pyrazolo[4,3-b]pyridin-1-yl]methyl]-5-methyl-1,2,4-oxadiazole], the IC50 is 279 nM.

Regarding `Fc1ccc(-c2cnc3cnn(Cc4nnc(C(F)(F)F)o4)c3c2)cc1OC(F)F` [Example 115, 2-[[6-[3-(Difluoromethoxy)-4-fluoro-phenyl]pyrazolo[4,3-b]pyridin-1-yl]methyl]-5-(trifluoromethyl)-1,3,4-oxadiazole], the concentration for half-maximal inhibition (IC50) stood at 414 nM. Regarding `Cc1nnc(Cn2ncc3ncc(-c4ccc(Cl)c(OC(F)F)c4)cc32)o1` [Example 116, 2-[[6-[4-Chloro-3-(difluoromethoxy)phenyl]pyrazolo[4,3-b]pyridin-1-yl]methyl]-5-methyl-1,3,4-oxadiazole], the IC50 turned out to be 283 nM. With `Cc1nnc(Cn2nc(F)c3ncc(-c4ccc(Cl)c(OC(F)F)c4)cc32)o1` [Example 117, 2-[[6-[4-Chloro-3-(difluoromethoxy)phenyl]-3-fluoro-pyrazolo[4,3-b]pyridin-1-yl]methyl]-5-methyl-1,3,4-oxadiazole], the IC50 is 655 nM. For the molecule `Cc1nnc(Cn2ncc3ncc(-c4ccc(F)c(C)c4F)cc32)o1` [Example 118, 2-[[6-(2,4-Difluoro-3-methyl-phenyl)pyrazolo[4,3-b]pyridin-1-yl]methyl]-5-methyl-1,3,4-oxadiazole], the IC50 stood at 35 nM.
